Data as given in patent US20260242362A1, “PREPARATION OF 3,4,5-TRISUBSTITUTED TRIAZOLES AND METHODS OF USING THE SAME” (University of Florida Research Foundation, Incorporated, priority 2023, published 2026).

Experiments:
[1] = biological target: T1, kappa opioid receptor (Homo sapiens, UniProt P41145); assay: GTPγS binding assay (G-protein activation); type: biochemical; conditions: for EC50: 3 parameter nonlinear regression, nc = did not converge; for GTPγS Emax (% U60): relative to U69,593 = 100% Emax; for GTPγS maximum stimulation observed at 10 μM (starred Emax cells): * compounds that did not reach plateau
Target sequence in this assay (P41145 whole entry): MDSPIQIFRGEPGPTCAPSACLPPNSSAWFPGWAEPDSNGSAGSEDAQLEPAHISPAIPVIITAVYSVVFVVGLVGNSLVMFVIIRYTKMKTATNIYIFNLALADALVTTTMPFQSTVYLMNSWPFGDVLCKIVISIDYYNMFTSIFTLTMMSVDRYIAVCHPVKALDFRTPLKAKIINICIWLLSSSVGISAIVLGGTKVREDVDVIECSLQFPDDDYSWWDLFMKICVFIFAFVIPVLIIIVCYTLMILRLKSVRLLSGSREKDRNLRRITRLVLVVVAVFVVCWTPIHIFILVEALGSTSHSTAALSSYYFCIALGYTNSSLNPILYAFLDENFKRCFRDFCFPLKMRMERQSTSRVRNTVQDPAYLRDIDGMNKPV

[2] = mouse, microsomes
Method: Microsomal stability was determined using mouse hepatic microsomes and LC/MS detections over time (Zhou et al., 2013, 22).

[3] = biological target: T1, kappa opioid receptor; assay: PathHunter DiscoverX β-arrestin2 recruitment (enzyme fragment complementation) assay; type: cell-based; conditions: for β-arrestin2 maximum stimulation observed at 10 μM (starred Emax cells / % max at 10 uM): * compounds that did not reach plateau; for EC50: 3 parameter nonlinear regression, nc = did not converge, read-out: β-arrestin2 EC50; for β-arrestin2 Emax (% U60): relative to U69,593 = 100% Emax, ~ did not plateau at 100%
Target sequence in this assay (P41145 whole entry): as above
Target sequence in this assay (P32121 whole entry partner): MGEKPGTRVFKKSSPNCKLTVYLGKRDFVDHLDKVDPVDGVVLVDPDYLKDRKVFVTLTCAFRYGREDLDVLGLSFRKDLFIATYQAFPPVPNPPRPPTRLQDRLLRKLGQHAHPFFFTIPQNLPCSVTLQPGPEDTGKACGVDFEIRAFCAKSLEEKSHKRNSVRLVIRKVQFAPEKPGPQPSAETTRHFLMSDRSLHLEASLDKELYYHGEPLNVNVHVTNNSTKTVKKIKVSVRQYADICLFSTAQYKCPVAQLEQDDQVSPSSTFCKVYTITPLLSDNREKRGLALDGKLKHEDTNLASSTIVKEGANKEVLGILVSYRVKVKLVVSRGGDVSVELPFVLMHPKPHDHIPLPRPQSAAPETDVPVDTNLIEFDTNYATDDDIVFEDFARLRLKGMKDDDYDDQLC

Structure (SMILES)	EC50 [1] [nM]	Microsomal Stability [2]	β-arrestin2 maximum stimulation observed at 10 μM (starred Emax cells / % max at 10 uM) [3]	EC50 [3] [nM]	β-arrestin2 Emax (% U60) [3] [% U60]	further results
Cc1ccc(CCc2nnc(-c3ccccn3)n2-c2ccccc2)cc1C(F)(F)F	–	–	–	–	–	KOR potency / activity in words (SAR commentary) [1]: potency was completely lost
Cc1ccc(/C=C/c2nnc(-c3ccccn3)n2Cc2nccs2)cc1C(F)(F)F [50 (UNC9078)]	767	10.1 min	51.6 (% max at 10 uM) % U60	–	–	GTPγS Emax (% U60) [1]: 81.6 % U60
Cc1ccc(/C=C/c2nnc(-c3nccn3C)n2Cc2ccco2)cc1C(F)(F)F [51 (UNC9012)]	–	–	17.3 (% max at 10 uM) % U60	–	–	GTPγS Emax (% U60) [1]: 76.1 % U60
Cc1ccc(/C=C/c2nnc(-c3nccn3C)n2Cc2cccs2)cc1C(F)(F)F [52 (UNC9166)]	349	12.2 min	37.7 (% max at 10 uM) % U60	55800	–	GTPγS Emax (% U60) [1]: 74.2 % U60
Cc1ccc(/C=C/c2nnc(-c3nccn3C)n2Cc2nccs2)cc1C(F)(F)F [53 (UNC9081)]	309	14.5 min	25.9 (% max at 10 uM) % U60	1570	–	–
Cc1ccc(CCCc2nnc(-c3ccccn3)n2Cc2ccco2)cc1C(F)(F)F [Compound 3]	812	1.6	–	–	–	GTPγS Emax (% U60) [1]: 74 % U60
Cc1ccc(CCc2nnc(-c3ccccn3)n2Cc2ncco2)cc1C(F)(F)F [Compound 5a]	38	–	–	532	–	–
Cc1ccc(CCc2nnc(-c3ccccn3)n2Cc2ccsc2)cc1C(F)(F)F [Compound 6]	12	1.0 min	–	813	–	–
Cc1ccc(CCc2nnc(-c3ccccn3)n2Cc2nccs2)cc1C(F)(F)F [Compound 7]	51	2.1 min	–	3570	82	GTPγS Emax (% U60) [1]: 63 % U60
Cc1ccc(CCc2nnc(-c3ccccn3)n2Cc2ccccc2)cc1C(F)(F)F [Compound 8]	–	0.9 min	–	6340	180	–
Cc1ccc(CCc2nnc(-c3ccccn3)n2Cc2ccccn2)cc1C(F)(F)F [Compound 10]	–	1.0 min	–	7690	125	GTPγS Emax (% U60) [1]: 784 % U60
Cc1ccc(CCc2nnc(-c3ccccn3)n2Cc2cccnc2)cc1C(F)(F)F [Compound 11]	70	1.7 min	–	479	105	GTPγS Emax (% U60) [1]: 90 % U60
Cc1ccc(CCc2nnc(-c3ccccn3)n2-c2cccc3ccccc23)cc1C(F)(F)F [Compound 11a]	2650	–	–	–	–	–
Cc1ccc(CCc2nnc(-c3ccccn3)n2Cc2ccncc2)cc1C(F)(F)F [Compound 12]	–	0.9 min	12* % U60	–	–	GTPγS maximum stimulation observed at 10 μM (starred Emax cells) [1]: 48* % U60
Cc1ccc(CCc2nnc(-c3ccccn3)n2-c2ccc3ccccc3c2)cc1C(F)(F)F [Compound 12a]	10300	–	–	–	–	–
Cc1ccc(CCc2nnc(-c3ccccn3)n2CC2CC2)cc1C(F)(F)F [Compound 13]	–	0.9 min	–	–	–	–
Cc1ccc(CCc2nnc(-c3ccccn3)n2CCc2ccccc2)cc1C(F)(F)F [Compound 13a]	1940	–	–	–	–	–
Cc1ccc(CCc2nnc(-c3ccccc3)n2Cc2cccs2)cc1C(F)(F)F [Compound 14]	–	1.8 min	–	> 10000	~100	–
Cc1ccc(CCc2nnc(-c3cccnc3)n2Cc2cccs2)cc1C(F)(F)F [Compound 15]	–	1.0 min	14* % U60	–	–	GTPγS Emax (% U60) [1]: 85 % U60
Cc1ccc(CCc2nnc(-c3ncccn3)n2Cc2cccs2)cc1C(F)(F)F [Compound 17]	–	0.8 min	–	2180	150	–
Cc1ccc(CCc2nnc(-c3ccccn3)n2CC2CCCO2)cc1C(F)(F)F (stereo not shown) [Compound 17a]	104	–	–	5430	–	–
Cc1ccc(CCc2nnc(-c3ccncn3)n2Cc2cccs2)cc1C(F)(F)F [Compound 18]	–	1.1 min	66* % U60	> 10000	–	–
Cc1ccc(CCc2nnc(-c3ncccc3C)n2Cc2cccs2)cc1C(F)(F)F [Compound 19]	–	1.1 min	–	1550	117	–
Cc1ccc(CCc2nnc(-c3cccc4ccccc34)n2Cc2cccs2)cc1C(F)(F)F [Compound 20]	–	0.9 min	76* % U60	> 10000	–	–

Structure (SMILES)	EC50 [1] [nM]	Microsomal Stability [2]	β-arrestin2 maximum stimulation observed at 10 μM (starred Emax cells / % max at 10 uM) [3]	EC50 [3] [nM]	β-arrestin2 Emax (% U60) [3] [% U60]	further results
Cc1ccc(CCc2nnc(-c3ccc4ccccc4c3)n2Cc2cccs2)cc1C(F)(F)F [Compound 21]	–	1.3 min	16* % U60	–	–	–
Cc1ccc(CCc2nnc(-c3ccc4ccccc4n3)n2Cc2cccs2)cc1C(F)(F)F [Compound 22]	–	2.2 min	–	> 10000	~100	–
Cc1ccc(CCc2nnc(-c3cccn3C)n2Cc2cccs2)cc1C(F)(F)F [Compound 23]	36	3.1 min	–	1320	–	–
COc1ccc(CCc2nnc(-c3ccccn3)n2Cc2cccs2)cc1 [Compound 25]	–	5.6 min	–	> 10000	124	–
Fc1ccc(CCc2nnc(-c3ccccn3)n2Cc2cccs2)cc1 [Compound 26]	288	3.1 min	–	3020	75	GTPγS Emax (% U60) [1]: 92 % U60
Clc1ccc(CCc2nnc(-c3ccccn3)n2Cc2cccs2)cc1 [Compound 27]	35	3.3 min	–	3740	102	GTPγS Emax (% U60) [1]: 93 % U60
Brc1ccc(CCc2nnc(-c3ccccn3)n2Cc2cccs2)cc1 [Compound 28]	–	4.6 min	–	963	106	GTPγS Emax (% U60) [1]: 96 % U60
Brc1cccc(CCc2nnc(-c3ccccn3)n2Cc2cccs2)c1 [Compound 29]	–	3.1 min	–	5020	114	GTPγS Emax (% U60) [1]: 89 % U60
Brc1ccccc1CCc1nnc(-c2ccccn2)n1Cc1cccs1 [Compound 30]	–	1.7 min	53* % U60	> 10000	–	GTPγS Emax (% U60) [1]: 84 % U60
FC(F)(F)c1ccccc1CCc1nnc(-c2ccccn2)n1Cc1cccs1 [Compound 31]	–	3.0 min	–	> 10000	44	–
FC(F)(F)c1ccc(CCc2nnc(-c3ccccn3)n2Cc2cccs2)cc1Cl [Compound 34]	1.4	1.3 min	–	127	–	–
c1ccc(-c2nnc(CCc3cccc4ccccc34)n2Cc2cccs2)nc1 [Compound 35]	–	1 min	–	> 10000	67	–
c1ccc(-c2nnc(CCc3ccc4ccccc4c3)n2Cc2cccs2)nc1 [Compound 36]	–	2.4 min	–	–	–	–
c1ccc(-c2nnc(C3CCc4ccccc4C3)n2Cc2cccs2)nc1 (stereo not shown) [Compound 37]	–	13.1 min	–	–	–	–
C(=C/c1nnc(-c2ccccn2)n1Cc1ccco1)/c1ccccc1 [Compound 38]	–	19.4 min	0* % U60	–	–	GTPγS maximum stimulation observed at 10 μM (starred Emax cells) [1]: 3* % U60
C(=C/c1nnc(-c2ccccn2)n1Cc1ccco1)/c1ccccc1 [Compound 39]	1800	12.6 min	19* % U60	–	–	–
Cc1cc(CCc2nnc(-c3ccccn3)n2Cc2cccs2)ccc1C(F)(F)F [Compound 39a]	3.1	–	–	–	–	–
OC(Cc1ccccc1)c1nnc(-c2ccccn2)n1Cc1ccco1 (stereo not shown) [Compound 41]	–	17.4 min	0* % U60	–	–	KOR potency / activity in words (SAR commentary) [1]: loss in potency; GTPγS maximum stimulation observed at 10 μM (starred Emax cells) [1]: 22* % U60
O=C(Cc1ccccc1)c1nnc(-c2ccccn2)n1Cc1ccco1 [Compound 42]	–	8.1 min	–	–	2	KOR potency / activity in words (SAR commentary) [1]: loss in potency; GTPγS maximum stimulation observed at 10 μM (starred Emax cells) [1]: 4* % U60; metabolic stability in words [2]: increased metabolic stability
FC(Cc1ccccc1)c1nnc(-c2ccccn2)n1Cc1ccco1 (stereo not shown) [Compound 43]	3820	9.1 min	7* % U60	> 10000	–	–
FC(F)(Cc1ccccc1)c1nnc(-c2ccccn2)n1Cc1ccco1 [Compound 44]	–	–	–	–	–	KOR potency / activity in words (SAR commentary) [1]: completely inactive
OC(Cc1nnc(-c2ccccn2)n1Cc1ccco1)c1ccccc1 (stereo not shown) [Compound 45]	–	20.7 min	–	–	–	–
FC(Cc1nnc(-c2ccccn2)n1Cc1cccs1)c1ccccc1 (stereo not shown) [Compound 46]	1060	69.7 min	64* % U60	> 10000	–	–
Cc1ccc(/C=C/c2nnc(-c3ccccn3)n2Cc2cccs2)cc1C(F)(F)F [Compound 47]	–	22.0 min	36* % U60	–	–	KOR potency / activity in words (SAR commentary) [1]: completely inactive; GTPγS Emax (% U60) [1]: 83 % U60
